What was measured:
[1] = system: SKMEL-188 melanoma cells; experiment: Sulforhodamine B assay in melanoma cells, SKMEL-188; format: cell-based; conditions: SK-MEL-188, 48 h, SRB assay, 48 h incubation; melanoma cell line
[2] = system: effector capsase-3; experiment: Activation of effector caspase-3; format: cell-based
[3] = system: WM-164 cells; experiment: Sulforhodamine B assay in melanoma cells, WM-164; format: cell-based; conditions: Homo sapiens, WM164, read-out: IC50 WM-164; SRB assay, 48 h incubation; melanoma cell line
[4] = system: LNCaP cells; experiment: DNA fragmentation by agarose gel electrophoresis; format: cell-based, human; conditions: treatment for 24 to […], 3-50 μM, FIGS. 4A-B
Procedure: In FIG. 4B, the dose and exposure time are indicated for compound 5 as follows: lane 1, 100 bp DNA marker; lane 2, 5 μM for 24 h; lane 3, 5 μM for 48 h; lane 4, 5 μM for 72 h; lane 5, 5 μM for 96 h; lane 6, 3 μM for 96 h; lane 7, 8 μM for 48 h; and lane 8, 8 μM for 72 h.

[5] = system: SKMEL-188 cells; experiment: Lactate dehydrogenase release assay; format: cell-based; conditions: SKMEL-188, 48 hours, FIG. 11A
Procedure: SKMEL-188 melanoma cells were incubated with Compound 4(R) at 60 μM for 48 hours. FIG. 11A is a graph showing the cytotoxicity as measured by LDH release from the cells following treatment. Data is presented as mean±SEM (n=8), *p<0.05, **p<0.005. FIG. 11B is a pair of graphs that show the DNA content, as measured by flow cytometry, of cells that were exposed to control (left) and Compound 4(R) (right).
Lactate Dehydrogenase Release Assay: SKMEL-188 cells were seeded at a density of 5000 cells per well in a 96-well flat-bottom microtiter plate. Media were changed after 12 hours and the testing compound was added at serial dilutions. Media were changed with fresh compound every 24 hours. […] Lactate dehydrogenase (LDH) in supernatants was measured using Cytotox 96 Non-Radioactive Cytotoxicity Assay (Promega, Madison, Wis.). […] At the end of incubation stop solution was added to each well and plate was read at 490 nm. Cytotoxicity of compounds was calculated using the following formula: percent cytotoxicity=experimental LDH release/maximum LDH release Experimental LDH release was calculated by subtraction of absorbance corresponding to media only from absorbance corresponding to control/compound treated cells. Maximum LDH release was calculated by subtraction of absorbance corresponding to media with added lysis solution from absorbance corresponding to cells lysed with lysis solution. […]

CCCCCCCCCCCCCCNC(=O)[C@@H]1CSC(c2ccccc2)N1.Cl (mixture of isomers) [Compound 4, (2RS, 4R)-2-Phenylthiazolidine-4-carboxylic acid tetradecylamide Hydrochloride]
IC50 [1]: 0.57 µM | Activation of effector caspase-3 [2]: no increase in activity | IC50 [3]: 0.46 µM | DNA fragmentation (apoptosis) in LNCaP cells [4]: induce cell apoptosis | LDH released to cellular environment [5]: dramatic does-dependent increase of LDH released

From US7662842B2, “Thiazolidinone amides, thiazolidine carboxylic acid amides, and serine amides, including polyamine conjugates thereof, as selective anti-cancer agents” (Ohio State Univesity Research Foundation, priority 2003, dated 2010)
